In patent US9896443B2, “Perforin inhibiting benzenesulfonamide compounds, preparation and uses thereof” (Peter MacCallum Cancer Institute, priority 2012, dated 2018):
pIC50: −log10 of the molar value. Where a name gives a salt, the structure may show the parent alone. Read-outs that look alike come from different tables or passages of the source.

How the values were obtained:
[1] = test system: KHYG-1 NK cell-mediated lysis of K562 cells; experiment: Inhibition of KHYG-1 NK cell-mediated lysis of K562 cells (51Cr release); type: cell-based; details: K562 target cells, Effector:Target 2:1, 4 hours at 37° C.
Method in brief: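 KHYG-1 effector cells pretreated with compound (up to 20 µM) for 20 min at RT. 51Cr-labelled K562 targets were then added at effector:target 2:1 and incubated 4 h at 37 °C. 51Cr release was gamma-counted and expressed as % specific cytotoxicity.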

[2] = test system: NK and perforin-mediated bone marrow rejection; experiment: In vivo inhibition of perforin-mediated bone marrow rejection; set-up: species or system C57Bl/6 mice; details: 120 mg/kg intra-peritoneal once daily day -2 to day +1; Balb/c bone marrow transplant; blood day +1
Method: In Vivo Inhibition of Perforin-Mediated Bone Marrow Rejection.
On day 0 mice received 12×106 Balb/c (CD45.2+) CFSE labelled bone marrow as well as 12×106 B6.PTP (CD45.1+) bone marrow. On day +1 blood was collected for in vivo cytotoxicity assays looking at the ratio of recipient (CD45.1+) versus donor cells (CFSE+) (FIG. 1). Results are illustrated in FIG. 2 as two experiments combined with n=6, 10, 10, 4 and 3/group. […] Statistically significant differences were calculated using two-tailed t tests between groups.

recombinant perforin = recombinant perforin (UniProt P10820); type: cell-based
Sequence of recombinant perforin (P10820 whole entry): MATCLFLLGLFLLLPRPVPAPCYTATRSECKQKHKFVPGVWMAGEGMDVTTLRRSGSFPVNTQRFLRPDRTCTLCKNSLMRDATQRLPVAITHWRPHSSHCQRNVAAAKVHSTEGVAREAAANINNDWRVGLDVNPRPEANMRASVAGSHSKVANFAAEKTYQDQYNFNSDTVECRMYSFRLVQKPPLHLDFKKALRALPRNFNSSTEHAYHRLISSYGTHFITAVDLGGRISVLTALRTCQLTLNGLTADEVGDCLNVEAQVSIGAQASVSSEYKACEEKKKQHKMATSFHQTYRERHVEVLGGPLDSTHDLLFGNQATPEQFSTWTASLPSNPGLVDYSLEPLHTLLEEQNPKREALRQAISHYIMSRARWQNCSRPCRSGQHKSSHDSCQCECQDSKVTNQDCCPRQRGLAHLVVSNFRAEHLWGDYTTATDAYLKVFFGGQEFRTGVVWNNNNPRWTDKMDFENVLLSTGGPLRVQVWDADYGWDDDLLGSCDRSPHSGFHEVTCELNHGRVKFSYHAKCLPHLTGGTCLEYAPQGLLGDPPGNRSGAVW
Method in brief: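 Jurkat T lymphoma cells labelled with 51Cr for 1 h, washed, then exposed to recombinant perforin with compound in RPMI plus 0.1% BSA. Lysis measured as 51Cr release. IC50 from a concentration range run in triplicate.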

[3] = lysis of Jurkat T lymphoma cells by recombinant perforin, 0.1% BSA, 30 min pre-incubation, 4 hours at 37° C.; read-out: Jurkat IC50
[4] = read-out: Jurkat IC50; lysis of Jurkat T lymphoma cells by recombinant perforin, 0.1% BSA, 30 min pre-incubation, 4 hours at 37° C.

Compound	Inhibition of KHYG-1 at 20 μM (%) ([1]; sodium salt)	inhibition of NK and perforin-mediated bone marrow rejection [2]	melting point	inhibition at 20 µM ([1]; 4 h)	pIC50 (recombinant perforin; [3])	pIC50 (recombinant perforin; [4])	inhibition at 20 µM [1]	Inhibition of KHYG-1 at 20 μM (%) [1]
CN1Cc2cc(-c3ccc(-c4cncc(NS(=O)(=O)c5ccc(F)cc5F)c4)s3)ccc2C1=O [Compound 1.Na, 2,4-Difluoro-N-(5-(5-(2-methyl-1-oxoisoindolin-5-yl)thiophen-2-yl)pyridin-3-yl)benzenesulfonamide, sodium salt]	48%	able to inhibit NK and perforin-mediated bone marrow rejection						
CN1Cc2cc(-c3ccc(-c4cncc(NS(=O)(=O)c5ccccn5)c4)s3)ccc2C1=O [Compound 31, N-(5-(5-(2-Methyl-1-oxoisoindolin-5-yl)thiophen-2-yl)pyridin-3-yl)pyridine-2-sulfonamide]			272 to 275 °C	19%	6.13			
CN1Cc2cc(-c3ccc(-c4cncc(NS(=O)(=O)c5cccs5)c4)s3)ccc2C1=O [Compound 34, N-(5-(5-(2-Methyl-1-oxoisoindolin-5-yl)thiophen-2-yl)pyridin-3-yl)thiophene-2-sulfonamide]			300 to 304 °C	45%	5.97			
COc1ncc(-c2ccc(-c3ccc4c(c3)CN(C)C4=O)s2)cc1NS(=O)(=O)c1ccc(F)cc1F [Compound 37, 2,4-Difluoro-N-(2-methoxy-5-(5-(2-methyl-1-oxoisoindolin-5-yl)thiophen-2-yl)pyridin-3-yl)benzenesulphonamide]			224 to 227 °C	36%	5.45			
CN1Cc2cc(-c3ccc(-c4ccnc(NS(=O)(=O)c5ccc(F)cc5F)c4)s3)ccc2C1=O [Compound 41, 2,4-Difluoro-N-(4-(5-(2-methyl-1-oxoisoindolin-5-yl)thiophen-2-yl)pyridin-2-yl)benzenesulfonamide]			235 to 239 °C	14%	5.33			
CN1Cc2cc(-c3ccc(-c4cccc(NS(=O)(=O)c5ccc(F)cc5F)c4)s3)ccc2C1=O [Compound 43, 2,4-Difluoro-N-(3-(5-(2-methyl-1-oxoisoindolin-5-yl)thiophen-2-yl)phenyl)benzene sulphonamide]			260 to 262 °C	18%	5.24			
CN1Cc2cc(-c3ccc(-c4cncc(S(=O)(=O)Nc5ccc(F)cc5F)c4)s3)ccc2C1=O [Compound 44, N-(2,4-Difluorophenyl)-5-(5-(2-methyl-1-oxoisoindolin-5-yl)thiophen-2-yl)pyridine-3-sulphonamide]			221 to 224 °C	57%	5.65			
CN1Cc2cc(-c3ccc(-c4cnc(N)c(S(=O)(=O)Nc5ccc(F)cc5F)c4)s3)ccc2C1=O [Compound 45, 2-Amino-N-(2,4-difluorophenyl)-5-(5-(2-methyl-1-oxoisoindolin-5-yl)thiophen-2-yl)pyridine-3-sulphonamide]			278 to 279 °C	14%		5.33		
CN1Cc2cc(-c3ccc(-c4cncc(N(C)S(=O)(=O)c5ccc(F)cc5F)c4)s3)ccc2C1=O [Compound 46, 2,4-Difluoro-N-methyl-N-(5-(5-(2-methyl-1-oxoisoindolin-5-yl)thiophen-2-yl)pyridin-3-yl)benzenesulphonamide]			200 to 202 °C	28%	5.04			
CN1Cc2ccc(-c3ccc(-c4cncc(NS(=O)(=O)c5ccc(F)cc5F)c4)s3)cc2C1=O [Compound 50, 2,4-Difluoro-N-(5-(5-(2-methyl-3-oxoisoindolin-5-yl)thiophen-2-yl)pyridin-3-yl)benzenesulfonamide]			292 to 295 °C	27%		4.98		
O=C1c2ccc(-c3ccc(-c4cncc(NS(=O)(=O)c5ccc(F)cc5F)c4)s3)cc2CN1CCO [Compound 56, 2,4-Difluoro-N-(5-(5-(2-(2-hydroxyethyl)-1-oxoisoindolin-5-yl)thiophen-2-yl)pyridin-3-yl)benzenesulfonamide]			211 to 216 °C	32%		5.88		
CCCCn1cc(C(C)=O)c2cc(-c3ccc(-c4cncc(NS(=O)(=O)c5ccc(F)cc5F)c4)s3)ccc21 [Compound 58, N-(5-(5-(3-Acetyl-1-butyl-1H-indol-5-yl)thiophen-2-yl)pyridin-3-yl)-2,4-difluorobenzenesulfonamide]			188 to 191 °C		5.26		64%	
CC(=O)c1cn(C)c2ccc(-c3ccc(-c4cncc(NS(=O)(=O)c5ccc(F)cc5F)c4)s3)cc12 [Compound 59, N-(5-(5-(3-Acetyl-1-methyl-1H-indol-5-yl)thiophen-2-yl)-pyridin-3-yl)-2,4-difluorobenzenesulfonamide]			241 to 244 °C	72%		4.95		
Cc1ccc(NS(=O)(=O)c2ccccn2)cc1-c1ccc(-c2ccc3c(c2)CN(C)C3=O)s1 [Compound 60, N-(4-Methyl-3-(5-(2-methyl-1-oxoisoindolin-5-yl)thiophen-2-yl)phenyl)pyridine-2-sulfonamide]			274 to 277 °C	17%	4.81			
CN1Cc2cc(-c3ccc(-c4ccc(OC(F)(F)F)c(NS(=O)(=O)c5ccccn5)c4)s3)ccc2C1=O [Compound 63, N-(5-(5-(2-Methyl-1-oxoisoindolin-5-yl)thiophen-2-yl)-2-(trifluoromethoxy)phenyl)pyridine-2-sulfonamide]			200 to 201 °C		< 4.70			56.14 ± 9%
